{"source": "paper PMC5218480", "about": "(PLoS ONE, 2017)", "system": "MV-4-11 cells", "assay": "Gene expression microarray analysis (Affymetrix PrimeView) and GSEA", "type": "cell-based, human", "parameters": "RFU PODN (11730768_x_at) / Fold change /veh PODN (11730768_x_at) / RFU LINC00158 (11744669_a_at) / Fold change /veh LINC00158 (11744669_a_at) / RFU DUSP10 (11751237_a_at) / Fold change /veh DUSP10 (11751237_a_at) / RFU ID3 (11757404_x_at) / Fold change /veh ID3 (11757404_x_at) / RFU PLEKHG5 (11737974_s_at) / Fold change /veh PLEKHG5 (11737974_s_at) / RFU LRRC4B (11730491_at) / Fold change /veh LRRC4B (11730491_at) / RFU GIMAP4 (11747438_a_at) / Fold change /veh GIMAP4 (11747438_a_at) / RFU KRT8 (11758183_x_at) / Fold change /veh KRT8 (11758183_x_at) / RFU CNN1 (11734310_a_at) / Fold change /veh CNN1 (11734310_a_at) / RFU VPS37D (11726825_at) / Fold change /veh VPS37D (11726825_at) / RFU C10orf10 (11716522_x_at) / Fold change /veh C10orf10 (11716522_x_at) / RFU KIR2DL2 /// KIR2DL4 /// KIR2DL5A /// KIR2DL5B /// KIR2DS1 /// KIR2DS2 /// KIR2DS3 /// KIR2DS4 /// KIR3DL3 /// KIR3DL3 /// KIR3DS1 (11738374_at) / Fold change /veh KIR2DL2 /// KIR2DL4 /// KIR2DL5A /// KIR2DL5B /// KIR2DS1 /// KIR2DS2 /// KIR2DS3 /// KIR2DS4 /// KIR3DL3 /// KIR3DL3 /// KIR3DS1 (11738374_at) / RFU C1QL1 (11718748_at) / Fold change /veh C1QL1 (11718748_at) / RFU TMPRSS4 (11747572_a_at) / Fold change /veh TMPRSS4 (11747572_a_at) / RFU HAMP (11756126_x_at) / Fold change /veh HAMP (11756126_x_at) / RFU RNFT2 (11725882_a_at) / Fold change /veh RNFT2 (11725882_a_at) / RFU NR4A2 (11747474_a_at) / Fold change /veh NR4A2 (11747474_a_at) / RFU ABCC12 (11746883_a_at) / Fold change /veh ABCC12 (11746883_a_at) / RFU TMEM136 (11760407_x_at) / Fold change /veh TMEM136 (11760407_x_at) / RFU CLDN22 /// WWC2 (11732394_at) / Fold change /veh CLDN22 /// WWC2 (11732394_at) / RFU HLA-DPB1 (11760878_x_at) / Fold change /veh HLA-DPB1 (11760878_x_at) / RFU SPINT1 (11716480_a_at) / Fold change /veh SPINT1 (11716480_a_at) / RFU GAP43 (11754022_s_at) / Fold change /veh GAP43 (11754022_s_at) / RFU A4GNT (11735810_at) / Fold change /veh A4GNT (11735810_at) / RFU PRB3 (11715151_x_at) / Fold change /veh PRB3 (11715151_x_at) / RFU TUBB4B (11761932_at) / Fold change /veh TUBB4B (11761932_at) / RFU CAPN14 (11732068_a_at) / Fold change /veh CAPN14 (11732068_a_at) / RFU TMCC2 (11721928_a_at) / Fold change /veh TMCC2 (11721928_a_at) / RFU IRGQ (11745062_a_at) / Fold change /veh IRGQ (11745062_a_at) / RFU FAM174B (11720279_a_at) / Fold change /veh FAM174B (11720279_a_at) / RFU TMPRSS4 (11748680_a_at) / Fold change /veh TMPRSS4 (11748680_a_at) / RFU FAM212B (11763350_a_at) / Fold change /veh FAM212B (11763350_a_at) / RFU PLEKHG5 (11743358_a_at) / Fold change /veh PLEKHG5 (11743358_a_at) / RFU ZSCAN30 (11745921_a_at) / Fold change /veh ZSCAN30 (11745921_a_at) / RFU CMKLR1 (11741424_a_at) / Fold change /veh CMKLR1 (11741424_a_at) / RFU LOC101060620 /// MAPK8IP1 (11723275_at) / Fold change /veh LOC101060620 /// MAPK8IP1 (11723275_at) / RFU SPTSSB (11747773_x_at) / Fold change /veh SPTSSB (11747773_x_at) / RFU PRSS12 (11739890_at) / Fold change /veh PRSS12 (11739890_at) / RFU BIN1 (11741810_x_at) / Fold change /veh BIN1 (11741810_x_at) / RFU WNT11 (11732464_a_at) / Fold change /veh WNT11 (11732464_a_at) / RFU C10orf10 (11716521_a_at) / Fold change /veh C10orf10 (11716521_a_at) / RFU C5orf56 (11738089_at) / Fold change /veh C5orf56 (11738089_at) / RFU CYB561 (11721691_x_at) / Fold change /veh CYB561 (11721691_x_at) / RFU ANKRD19P (11752326_a_at) / Fold change /veh ANKRD19P (11752326_a_at) / RFU OR2T12 /// OR2T33 /// OR2T8 (11738714_s_at) / Fold change /veh OR2T12 /// OR2T33 /// OR2T8 (11738714_s_at) / RFU VCAN (11748164_a_at) / Fold change /veh VCAN (11748164_a_at) / RFU JSRP1 (11732532_at) / Fold change /veh JSRP1 (11732532_at) / RFU KRTAP10-11 (11738290_x_at) / Fold change /veh KRTAP10-11 (11738290_x_at) / RFU MYO3A (11730013_a_at) / Fold change /veh MYO3A (11730013_a_at) / RFU EBF3 (11725865_a_at) / Fold change /veh EBF3 (11725865_a_at) / RFU CAMK2N1 (11719241_x_at) / Fold change /veh CAMK2N1 (11719241_x_at) / RFU C5orf56 (11738088_a_at) / Fold change /veh C5orf56 (11738088_a_at) / RFU OLFML3 (11715873_a_at) / Fold change /veh OLFML3 (11715873_a_at) / RFU LOC100653217 /// NTM (11731650_a_at) / Fold change /veh LOC100653217 /// NTM (11731650_a_at) / RFU MAPK11 (11762145_a_at) / Fold change /veh MAPK11 (11762145_a_at) / RFU FIZ1 (11724087_x_at) / Fold change /veh FIZ1 (11724087_x_at) / RFU OASL (11726364_x_at) / Fold change /veh OASL (11726364_x_at) / RFU SOX15 (11748057_x_at) / Fold change /veh SOX15 (11748057_x_at) / RFU CD79A (11719716_a_at) / Fold change /veh CD79A (11719716_a_at) / RFU HIST1H1D (11736915_at) / Fold change /veh HIST1H1D (11736915_at) / RFU CASKIN2 (11723855_a_at) / Fold change /veh CASKIN2 (11723855_a_at) / RFU LOC730098 (11760151_x_at) / Fold change /veh LOC730098 (11760151_x_at) / RFU OR4N2 (11742367_at) / Fold change /veh OR4N2 (11742367_at) / RFU PRRT2 (11749266_a_at) / Fold change /veh PRRT2 (11749266_a_at) / RFU SNX32 (11753110_a_at) / Fold change /veh SNX32 (11753110_a_at) / RFU CDHR5 (11726645_a_at) / Fold change /veh CDHR5 (11726645_a_at) / RFU RCAN1 (11760418_a_at) / Fold change /veh RCAN1 (11760418_a_at) / RFU FAM167A (11723789_a_at) / Fold change /veh FAM167A (11723789_a_at) / RFU FAM26E (11764081_at) / Fold change /veh FAM26E (11764081_at) / RFU ISYNA1 (11749810_s_at) / Fold change /veh ISYNA1 (11749810_s_at) / RFU ACY1 (11761880_at) / Fold change /veh ACY1 (11761880_at) / RFU 11764098_at / Fold change /veh 11764098_at / RFU SAMD14 (11745864_x_at) / Fold change /veh SAMD14 (11745864_x_at) / RFU NPB (11741838_a_at) / Fold change /veh NPB (11741838_a_at) / RFU TMPRSS6 (11731388_a_at) / Fold change /veh TMPRSS6 (11731388_a_at) / RFU KRTAP10-2 (11738614_at) / Fold change /veh KRTAP10-2 (11738614_at) / RFU ARHGAP8 /// PRR5-ARHGAP8 (11727945_x_at) / Fold change /veh ARHGAP8 /// PRR5-ARHGAP8 (11727945_x_at) / RFU KRTAP5-7 /// NADSYN1 (11734609_at) / Fold change /veh KRTAP5-7 /// NADSYN1 (11734609_at) / RFU RASL12 (11751679_a_at) / Fold change /veh RASL12 (11751679_a_at) / RFU CDKN2B (11736163_a_at) / Fold change /veh CDKN2B (11736163_a_at) / RFU PRF1 (11729649_at) / Fold change /veh PRF1 (11729649_at) / RFU, ZNF638 /// ZNF638-IT1 / Fold change vs veh, ZNF638 /// ZNF638-IT1 / RFU, PANK3 / Fold change vs veh, PANK3 / RFU, SH3YL1 / Fold change vs veh, SH3YL1 / RFU, ZEB2 / Fold change vs veh, ZEB2 / RFU, NRIP1 / Fold change vs veh, NRIP1 / RFU, PTTG1IP / Fold change vs veh, PTTG1IP / RFU, CAPN2 / Fold change vs veh, CAPN2 / RFU, MED14 / Fold change vs veh, MED14 / RFU, SNORA58 / Fold change vs veh, SNORA58 / RFU, C1orf63 / Fold change vs veh, C1orf63 / RFU, LRRFIP1 / Fold change vs veh, LRRFIP1 / RFU, NDUFAF7 / Fold change vs veh, NDUFAF7 / RFU, SLC12A2 / Fold change vs veh, SLC12A2 / RFU, IBTK / Fold change vs veh, IBTK / RFU, ESF1 / Fold change vs veh, ESF1 / Fold change vs veh, TMEM50B / RFU, TAOK1 / Fold change vs veh, TAOK1 / RFU, ACBD3 / Fold change vs veh, ACBD3 / RFU, TMA16 / Fold change vs veh, TMA16 / RFU, RWDD3 / Fold change vs veh, RWDD3 / RFU, BCAT1 / Fold change vs veh, BCAT1 / RFU, EDEM3 / Fold change vs veh, EDEM3 / RFU, TMEM33 / Fold change vs veh, TMEM33 / RFU, WDR75 / Fold change vs veh, WDR75 / RFU, AHCTF1 / Fold change vs veh, AHCTF1 / RFU, TFRC / Fold change vs veh, TFRC / RFU, ZDHHC17 / Fold change vs veh, ZDHHC17 / RFU, NOM1 / Fold change vs veh, NOM1 / RFU, ARL8B / Fold change vs veh, ARL8B / RFU, ZBTB11 / Fold change vs veh, ZBTB11 / RFU, TAMM41 / Fold change vs veh, TAMM41 / RFU, KIAA1704 /// LOC100996395 / Fold change vs veh, KIAA1704 /// LOC100996395 / RFU, ING1 / Fold change vs veh, ING1 / RFU, TRMT61B / Fold change vs veh, TRMT61B / RFU, FUBP3 / Fold change vs veh, FUBP3 / RFU, TP53 / Fold change vs veh, TP53 / RFU, TNKS2 / Fold change vs veh, TNKS2 / RFU, ZFP14 / Fold change vs veh, ZFP14 / RFU, ACTR2 / Fold change vs veh, ACTR2 / RFU, PPP3R1 / Fold change vs veh, PPP3R1 / RFU, PIK3R1 / Fold change vs veh, PIK3R1 / RFU, HNRNPA1 / Fold change vs veh, HNRNPA1 / RFU, RNF170 / Fold change vs veh, RNF170 / RFU, ZNF28 / Fold change vs veh, ZNF28 / RFU, RNGTT / Fold change vs veh, RNGTT / RFU, OGT / Fold change vs veh, OGT / RFU, BRD1 / Fold change vs veh, BRD1 / RFU, MARS / Fold change vs veh, MARS / RFU, ZNF655 / Fold change vs veh, ZNF655 / RFU, FAHD1 / Fold change vs veh, FAHD1 / RFU, BDP1 / Fold change vs veh, BDP1 / RFU, LRRCC1 / Fold change vs veh, LRRCC1 / RFU, ARID1A / Fold change vs veh, ARID1A / RFU, ZNF146 / Fold change vs veh, ZNF146 / RFU, ZNF330 / Fold change vs veh, ZNF330 / RFU, GPN3 / Fold change vs veh, GPN3 / RFU, C9orf123 / Fold change vs veh, C9orf123 / RFU, N4BP2L2 / Fold change vs veh, N4BP2L2 / RFU, ARFIP1 / Fold change vs veh, ARFIP1 / RFU, FAM179B / Fold change vs veh, FAM179B / RFU, BCL10 / Fold change vs veh, BCL10 / RFU, UHRF1BP1L / Fold change vs veh, UHRF1BP1L / RFU, BET1 / Fold change vs veh, BET1 / RFU, CNOT2 / Fold change vs veh, CNOT2 / RFU, ZNF268 / Fold change vs veh, ZNF268 / Fold change vs veh, ZNF507 / RFU, DGCR2 / Fold change vs veh, DGCR2 / RFU, WDSUB1 / Fold change vs veh, WDSUB1 / Fold change vs veh, HSP90B1 /// MIR3652 / RFU, ADSS / Fold change vs veh, ADSS / RFU, GK / Fold change vs veh, GK / RFU, ZNF148 / Fold change vs veh, ZNF148 / RFU, TAF9 / Fold change vs veh, TAF9 / RFU, SLC1A5 / Fold change vs veh, SLC1A5 / RFU, SLMO2 / Fold change vs veh, SLMO2 / RFU, ABCC4 / Fold change vs veh, ABCC4 / RFU, LOC101060439 /// RAP1B / Fold change vs veh, LOC101060439 /// RAP1B / RFU, RFX7 / Fold change vs veh, RFX7 / RFU, GTPBP10 / Fold change vs veh, GTPBP10 / RFU, CNEP1R1 / Fold change vs veh, CNEP1R1 / RFU, BIVM-ERCC5 /// ERCC5 / Fold change vs veh, BIVM-ERCC5 /// ERCC5 / RFU, ILF3 / Fold change vs veh, ILF3 / RFU 11762660_at / Fold change /veh 11762660_at / RFU VCAN (11757783_s_at) / Fold change /veh VCAN (11757783_s_at) / RFU DDX43 (11728927_at) / Fold change /veh DDX43 (11728927_at) / RFU KRT8 (11758188_x_at) / Fold change /veh KRT8 (11758188_x_at) / RFU NKD1 (11759106_at) / Fold change /veh NKD1 (11759106_at) / RFU SRD5A1 (11742802_a_at) / Fold change /veh SRD5A1 (11742802_a_at) / RFU TPSAB1 /// TPSB2 (11721975_s_at) / Fold change /veh TPSAB1 /// TPSB2 (11721975_s_at) / RFU GSTM3 (11746129_a_at) / Fold change /veh GSTM3 (11746129_a_at) / RFU IL23R (11737362_x_at) / Fold change /veh IL23R (11737362_x_at) / RFU TMEM51 (11727254_a_at) / Fold change /veh TMEM51 (11727254_a_at) / RFU PIWIL2 (11732686_x_at) / Fold change /veh PIWIL2 (11732686_x_at) / RFU ORM1 (11744905_x_at) / Fold change /veh ORM1 (11744905_x_at) / RFU CCDC152 (11743942_at) / Fold change /veh CCDC152 (11743942_at) / RFU ECM1 (11717891_a_at) / Fold change /veh ECM1 (11717891_a_at) / RFU IL23R (11748794_a_at) / Fold change /veh IL23R (11748794_a_at) / RFU TNFAIP8L3 (11732012_x_at) / Fold change /veh TNFAIP8L3 (11732012_x_at) / RFU MBOAT4 (11741988_at) / Fold change /veh MBOAT4 (11741988_at) / RFU 11764193_at / Fold change /veh 11764193_at / RFU TMEM53 (11763286_at) / Fold change /veh TMEM53 (11763286_at) / RFU MAGEB2 (11727129_at) / Fold change /veh MAGEB2 (11727129_at) / RFU TMEM200A (11744735_a_at) / Fold change /veh TMEM200A (11744735_a_at) / RFU CCDC152 (11751479_a_at) / Fold change /veh CCDC152 (11751479_a_at) / RFU FAM211A (11726209_a_at) / Fold change /veh FAM211A (11726209_a_at) / RFU RGS16 (11746705_a_at) / Fold change /veh RGS16 (11746705_a_at) / RFU VCAN (11755009_s_at) / Fold change /veh VCAN (11755009_s_at) / RFU RHOB (11743442_s_at) / Fold change /veh RHOB (11743442_s_at) / RFU RGS16 (11720943_a_at) / Fold change /veh RGS16 (11720943_a_at) / RFU RGS16 (11720944_at) / Fold change /veh RGS16 (11720944_at) / RFU, VPS4B / Fold change vs veh, VPS4B / RFU, CREB1 / Fold change vs veh, CREB1 / RFU, DNAJC13 / Fold change vs veh, DNAJC13 / RFU, GNAQ / Fold change vs veh, GNAQ / RFU, CDK5R1 / Fold change vs veh, CDK5R1 / RFU, ZRANB3 / Fold change vs veh, ZRANB3 / RFU, CUL4A / Fold change vs veh, CUL4A / RFU, CCNY / Fold change vs veh, CCNY / RFU, UFL1 / Fold change vs veh, UFL1 / RFU, COG3 / Fold change vs veh, COG3 / RFU, DIAPH2 / Fold change vs veh, DIAPH2 / RFU, SKA2 / Fold change vs veh, SKA2 / RFU, AFF3 / Fold change vs veh, AFF3 / RFU, LMF1 / Fold change vs veh, LMF1 / RFU, IPO11 / Fold change vs veh, IPO11 / RFU, DFFB / Fold change vs veh, DFFB / RFU, FOXP1 / Fold change vs veh, FOXP1 / RFU, CARD8 / Fold change vs veh, CARD8 / RFU, STRN3 / Fold change vs veh, STRN3 / RFU, ADK / Fold change vs veh, ADK / RFU, RASSF2 / Fold change vs veh, RASSF2 / RFU, WIPF1 / Fold change vs veh, WIPF1 / RFU, LARP1B / Fold change vs veh, LARP1B / RFU, RASA1 / Fold change vs veh, RASA1 / RFU, RB1 / Fold change vs veh, RB1 / RFU, PPFIA1 / Fold change vs veh, PPFIA1 / RFU, MAT2A / Fold change vs veh, MAT2A / RFU, CCT5 / Fold change vs veh, CCT5 / RFU, WDR92 / Fold change vs veh, WDR92 / RFU, CUX1 / Fold change vs veh, CUX1 / RFU, TTC7A / Fold change vs veh, TTC7A / RFU, TMEM135 / Fold change vs veh, TMEM135 / RFU, DEPTOR / Fold change vs veh, DEPTOR / RFU, CPM / Fold change vs veh, CPM / RFU, DNAJB6 / Fold change vs veh, DNAJB6 / RFU, CACNA2D3 / Fold change vs veh, CACNA2D3 / RFU, DTX4 / Fold change vs veh, DTX4 / RFU, TFCP2 / Fold change vs veh, TFCP2 / RFU, GMCL1 /// GMCL1P1 / Fold change vs veh, GMCL1 /// GMCL1P1 / RFU, AEBP2 / Fold change vs veh, AEBP2 / RFU, SNHG1 /// SNORD22 /// SNORD25 /// SNORD26 /// SNORD27 /// SNORD28 /// SNORD29 /// SNORD31 / Fold change vs veh, SNHG1 /// SNORD22 /// SNORD25 /// SNORD26 /// SNORD27 /// SNORD28 /// SNORD29 /// SNORD31 / Fold change (Aza/veh), C12orf56 (ProbeSet 11735607_a_at) / Fold change (ACY-1035/veh), C12orf56 (ProbeSet 11735607_a_at) / Fold change (Aza/veh), FGFR1OP (ProbeSet 11751329_s_at) / Fold change (ACY-1035/veh), FGFR1OP (ProbeSet 11751329_s_at) / Fold change (Aza/veh), VPS36 (ProbeSet 11739960_a_at) / Fold change (ACY-1035/veh), VPS36 (ProbeSet 11739960_a_at) / RFU SYPL1 (11715823_x_at) / Fold change /veh SYPL1 (11715823_x_at) / RFU IGFBP7 (11715501_s_at) / Fold change /veh IGFBP7 (11715501_s_at) / RFU REEP3 (11722064_at) / Fold change /veh REEP3 (11722064_at) / RFU IGLL1 (11728026_x_at) / Fold change /veh IGLL1 (11728026_x_at): dose or concentration left out as unconfirmed", "conditions": "ProbeSet 11716331_a_at; LIST D", "data": [{"smiles": "Nc1ccc(-c2cccs2)cc1NC(=O)c1ccc2c(c1)cc(C1CC1)n2CCN1CCOCC1", "note": "[ACY-1035]", "values": [{"measurement": "Fold change vs veh, DNAJB6", "value": 0.86}]}]}
